Assay results reported in PMC5034696 (Drug Metabolism and Disposition, 2016).

How the values were obtained:
human liver microsomes [1] = assay type: in vitro ADME; settings: HLM, p < 0.05; for S,S-OH-bupropion formation higher than control: 1 μM S-bupropion
human liver microsomes [2] = assay type: in vitro ADME; settings: HLM
CYP2C19 = settings: vs extensive metabolizers; ref Zhu et al., 2014; cited from earlier work
[3] = in vivo, humans; ref Turpeinen et al., 2005; cited from earlier work

SMILES: CCC1(c2ccccc2)NC(=O)N(Cc2ccccc2)C1=O (single isomer, unassigned; (+)) [N-benzylnirvanol, (+)-N-3-benzylnirvanol]
- R,R-OH-bupropion formation higher than control (human liver microsomes [1]; 1 μM R-bupropion): 11%
- S,S-OH-bupropion formation higher than control (human liver microsomes [1]): 20%
- inhibition of 4′-OH-bupropion formation from R-bupropion (human liver microsomes [2]; 1 µM R-bupropion): 84%
- inhibition of 4′-OH-bupropion formation from S-bupropion (human liver microsomes [2]; 1 µM S-bupropion): 82%

SMILES: CC(NC(C)(C)C)C(=O)c1cccc(Cl)c1 (stereo not shown) [bupropion]
- estimated in vivo isomerization CL (Chiral inversion; scaled to blood volume (5 l)): 2.7 L/h
- estimated in vivo isomerization CL (Chiral inversion; scaled to total body water (42 l)): 22.7 L/h
- increase in bupropion AUC in CYP2C19 intermediate metabolizers (CYP2C19): 13%

SMILES: COC(=O)[C@H](c1ccccc1Cl)N1CCc2sccc2C1 [clopidogrel]
- increase in bupropion AUC [3]: 36%

SMILES: CC(C)(O)c1ccccc1CC[C@@H](SCC1(CC(=O)O)CC1)c1cccc(/C=C/c2ccc3ccc(Cl)cc3n2)c1 [montelukast]
- S,S-OH-bupropion formation higher than control (human liver microsomes [1]): 15%

SMILES: Clc1ccccc1CN1CCc2sccc2C1 [ticlopidine]
- increase in bupropion AUC [3]: 61%
